Columns and labels:
EO771 tumors = assay: CyTOF immune profile of EO771 tumors; type: in vivo, C57BL/6 mice
Experimental: Animal studies: All animal experiments were performed in accordance with the National Institutes of Health's Animal Use Guidelines and protocols approved by the Animal Care and Use Committee of Indiana University School of Medicine. […] Each mouse was injected with a total of 2×10^5 tumor cells. 5 mice were used in each group. Tumors were measured in two dimensions using a manual caliper. Tumor volume was calculated using the following formula: V=0.5×length×width×width. Tumor volume was measured every 3 days. Tumors were harvested 22 days after injection. The tumor growth, volume and weight were analyzed. To evaluate the anti-tumor effect of drugs in immunocompetent C57BL/6 mice and immunodeficient nude (NU/J) mice, 2×10^5 EO771 cells were orthotopically injected into fat pad of the 4th mammary gland in female mice. […] For CD4/CD8 depletion experiment, the tumor-bearing mice were randomly divided into 7 groups (n=8 mice/group) including isotype control (rat IgG2a, Bioxcell), isotype control+CUDC-101, isotype control+BML-210, anti-CD8 (Clone: 53-6.72, Bioxcell)+CUDC-101, anti-CD8+BML-210, anti-CD4 (Clone: GK1.5, Bioxcell)+CUDC-101, or anti-CD4+BML-210. Intraperitoneal injection of inhibitors (20 mg kg-1) and anti-CD4/CD8 (10 mg kg-1) were administrated to the mice by 3 times/week for 2 weeks. The tumors were harvested at day 18 (NU/J mice) or day 28 (C57BL/6 mice) for further analyses. In immune checkpoint blockade experiment, 2×10^5 EO771 cells were orthotopically injected into fat pad of the 4th mammary gland in female C57BL/6 mice. From day 10, the tumor-bearing mice were randomly divided into each treatment group (n=8 mice/group), and the mice were treated with IgG2a isotype control antibody (clone 2A3, Bioxcell), BML-210 (20 mg kg-1), anti-PD-1 (200 μg/mouse, Bioxcell), or BML-210 and anti-PD-1 combo. The treatment was done 3 times/week for 2 weeks. Tumors were harvested at day 26 post injection and the tumors were analyzed by IHC staining, flow cytometry, ELISA or CyTOF assay. Mass Cytometry (CyTOF): EO771 tumors in C57BL/6 mice were harvested and dissociated into single cells. 1×10^6 single cells from each sample were suspended in ice-cold buffer (PBS with 0.5% BSA and 0.02% Azide). The antibody panel (Table 1) was used for sample staining. Samples were analyzed using the CyTOF 2 Mass Cytometer (Fluidigm). All the samples were done on bead-based normalization before analysis on Cytobank. CyTOF data were analyzed using viSNE analysis64 in the Cytobank platform. The viSNE analysis uses the Barnes-Hut implementation of the t-Distributed Stochastic Neighbor embedding (tSNE) algorithm. The cell populations were visualized on viSNE as an overlay plot.

EO771 cells = assay: Gene expression in EO771 cells (RNA-seq, quantitative RT-PCR); type: cell-based, mouse
Experimental: Quantitative reverse transcription PCR (RT-PCR): Mouse EO771 cells were treated with and without BML-210 drug for 48 h. Total RNA was isolated from the cells using TRIzol (Ambion, Lot: 260808) and the miRNeasy Mini kit (Qiagen, 157029493, Thermo Scientific). The quality of the RNA was quantified by a Nano Drop 2000 spectrophotometer. A total of 1 μg RNA was reverse transcribed into cDNA using the […] superMix reagent (Quantabio, 66141329). Quantitative PCR was performed using SYBR Green […] low Rox reagent (TaKaRa) on a Quantstudio real-time PCR system (ThermoFisher Scientific). RNA sequencing: Total RNA was extracted from EO771 cells using TRIzol (Ambion) and the miRNeasy Mini kit (Qiagen). The quantity and quality of the RNA was evaluated by an Agilent Bioanalyzer 2100. 100 ng of total RNA from each sample was used, from which ribosomal RNA was removed by the QIAseq FastSelect rRNA Removal HMR Kit (Qiagen). The cDNA library was constructed using the KAPA RNA Hyper Prep Kit (Roche Corporate) and the quality was accessed by the Qubit and Agilent Bioanalyzer. The library pool was sequenced in 100b paired-end read format on NovaSeq 6000 (Illumina) at the Center for Medical Genomics, Indiana University School of Medicine (IUSM). RNA-seq analysis: The reads were mapped to the mouse genome mm10 using STAR (v2.5)65. RNA-seq aligner with the following parameter: “--outSAMmapqUnique 60”. Uniquely mapped sequencing reads were assigned to GENCODE M22 genes using feature Counts (v1.6.2)66 with the following parameters: “-s 2 -p -Q 10”. […] The data were visualized with volcano plot using MATLAB. The gene enrichment analysis on DEGs from the Kyoto Encyclopedia of Genes and Genomes (KEGG) pathway database and Gene Ontology database was performed using the Database for Annotation, Visualization and Integrated Discovery (DAVID) functional analysis69. The analysis was visualized using MATLAB with q value (-log 10) and gene number in each GO and pathway. Gene set enrichment analysis (GSEA) of the antigen processing and presentation pathway was carried out with GSEA software70.

Nc1ccccc1NC(=O)CCCCCCC(=O)Nc1ccccc1 [BML-210]
infiltration of PMN-MDSCs (EO771 tumors; CD11b+Ly6G+Ly6ClowF4/80−): decreased infiltration
Mo-MDSCs (EO771 tumors; CD11b+Ly6G-Ly6C+F4/80−): increased
tumor-associated macrophage (TAM M1 and TAM M2) populations (EO771 tumors; mouse, in vivo): No significant differences
infiltration of immune lymphocytes, particularly CD8+ T effector cells and NK cells (EO771 tumors; tumors 26 days post implantation): notably enhanced infiltration
expression of antigen processing and presentation DEGs (qPCR) (EO771 cells; EO771, BML-210 1.0 μM, FIG. 4A): most of DEGs had higher expression levels
MHC-I genes (H2-D1, H2-K2, B2M), lysosome gene (Lamp1), endosome gene (Hspa8) (EO771 cells; RNA-seq): induced
genome-wide gene expression profile (GO enrichment) (EO771 cells; RNA-seq): upregulation of genes particularly enriched in lysosome, phagosome, antigen processing and presentation pathways

Source: US20240299321A1, “METHODS TO SENSITIZE CANCER CELLS AND STANDARDIZED SCREENING ASSAY FOR IMMUNOTHERAPY” (THE TRUSTEES OF INDIANA UNIVERSITY, priority 2020, published 2024)
